We go through twelve molecules from ChEMBL document CHEMBL1201862, “PubChem BioAssay data set” (2004).

Some test systems named below: HCT-15; MDA-N; PC-3; NCI-H23; OVCAR-8; KM12; HT-29; NCI/ADR-RES; K562; HOP-62; DU-145; SNB-19; NCI-H522; SR; SF-539; SK-MEL-28; HCT-116; T47D; HOP-92; MDA-MB-231.
What all share (test): growth of human tumour cells (NCI), 48 h

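1) Cells in 96-well plates. 2) Compound, 48 h, 5 concentrations. 3) Linear interpolation between surrounding doses. 4) Unreached endpoint = highest concentration. GI50 is the concentration that inhibits growth by half.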 Activity calls are given as the source filed them. No stated cut-off is given here; in the data, active = GI50 up to about 1.1 µM and inactive = higher.

Regarding `COc1c(Br)cc(/C=C(\C#N)c2ccccn2)cc1Br`, the GI50 was 84.9 µM with HCT-15; > 10 µM (inactive) in the assay with MDA-N; > 100 µM (inactive) with PC-3; 41.7 µM (inactive) in the assay on NCI-H23; 34.5 µM (inactive) in the assay with OVCAR-8; > 100 µM (inactive) in the assay on KM12. The GI50 with HT-29 was > 100 µM (inactive); in the assay on NCI/ADR-RES it was 39.4 µM (inactive); in the assay on K562 it was > 100 µM (inactive); with HOP-62, 22.2 µM (inactive); with DU-145, 37.8 µM (inactive); in the assay on SNB-19 it was > 100 µM (inactive). Also, the GI50 in the assay on NCI-H522 was > 100 µM (inactive); with SR, > 100 µM (inactive); with SF-539, 33.4 µM (inactive); in the assay on SK-MEL-28, > 100 µM (inactive); in the assay on HCT-116, 30.3 µM (inactive).

`C=C1C(=O)OC2C1CCC(C)C1(O)C=CC(=O)C21C` (stereo not drawn): the GI50 with HCT-15 was 4.5 µM; with MDA-N, 6.85 µM (inactive); in the assay on PC-3, > 10 µM (inactive); in the assay with NCI-H23 it was 7.69 µM (inactive); in the assay with OVCAR-8, 3.5 µM (inactive); with KM12, > 10 µM (inactive). Moreover, the GI50 in the assay on HT-29 is > 10 µM (inactive); in the assay with T47D it was 6.31 µM (inactive); in the assay with NCI/ADR-RES it was 3.95 µM (inactive); in the assay on K562 it was 4.45 µM (inactive); in the assay on HOP-62 it was > 10 µM (inactive); in the assay on SNB-19, > 10 µM (inactive). For the same molecule, the GI50 is 3.33 µM (inactive) with HOP-92; 3.13 µM (inactive) in the assay with SR; > 10 µM (inactive) in the assay with SF-539; 5.92 µM (inactive) in the assay on SK-MEL-28; 5.04 µM (inactive) in the assay with HCT-116.

With `COc1cc(Cc2nccc3cc(OC)c(OC)cc23)c(/N=N/N(C)C)cc1OC`, the GI50 in the assay with HCT-15 was 5 µM; in the assay on MDA-N, 19 µM (inactive); in the assay with PC-3, 10.7 µM (inactive); in the assay with NCI-H23 it was 19.3 µM (inactive); with OVCAR-8, 15.7 µM (inactive); with KM12, 18.7 µM (inactive). Moreover, the GI50 in the assay on HT-29 is 10.4 µM (inactive); with MDA-MB-231 it was 14.4 µM (inactive); with T47D, 5.36 µM (inactive); with NCI/ADR-RES, 23.1 µM (inactive); in the assay on K562, 4.28 µM (inactive); with HOP-62 it was 23.7 µM (inactive). Moreover, the GI50 in the assay with DU-145 is 17.5 µM (inactive); with SNB-19, 30.6 µM (inactive); in the assay with SK-MEL-28, 11.2 µM (inactive); in the assay with HCT-116 it was 5.08 µM (inactive).

Turning to `O=C1c2ccccc2-c2c1c(-c1ccc([N+](=O)[O-])cc1)nc1ccc3ccccc3c21`, the GI50 in the assay on HCT-15 is > 100 µM; in the assay on MDA-N it was > 100 µM (inactive); with PC-3, > 100 µM (inactive); in the assay on NCI-H23, > 100 µM (inactive); in the assay on OVCAR-8 it was > 100 µM (inactive); with KM12, > 100 µM (inactive). Also, the GI50 in the assay on HT-29, with MDA-MB-231, in the assay on T47D, in the assay with NCI/ADR-RES, in the assay with K562 and in the assay on HOP-62 was > 100 µM (inactive) throughout. Further, the GI50 in the assay on DU-145, in the assay with SNB-19, in the assay on SF-539, in the assay on SK-MEL-28 and in the assay with HCT-116 was > 100 µM (inactive) each time.

For `CC1(CCOCc2ccccc2)NC(=O)NC1=O` (stereo not drawn), the GI50 in the assay with HCT-15 is > 100 µM; in the assay on MDA-N, > 100 µM (inactive); with PC-3 it was > 100 µM (inactive); in the assay with NCI-H23 it was > 100 µM (inactive); with OVCAR-8 it was > 100 µM (inactive); with KM12, > 100 µM (inactive). Further, the GI50 with HT-29, in the assay with MDA-MB-231, with NCI/ADR-RES, with K562, in the assay with HOP-62 and in the assay on DU-145 was > 100 µM (inactive) each time. For the same molecule, the GI50 in the assay with SNB-19, in the assay on HOP-92, in the assay with NCI-H522, in the assay with SR, in the assay on SK-MEL-28 and with HCT-116 was > 100 µM (inactive) each time.

With `CC(=O)c1c(N=[N+]=[N-])c2cccc3c2n(c1=O)CCC3`, the GI50 in the assay on HCT-15 was 19.7 µM; with MDA-N it was 18.5 µM (inactive); in the assay with PC-3, 17.3 µM (inactive); in the assay on NCI-H23 it was 20.8 µM (inactive); in the assay with OVCAR-8, 0.957 µM (active); with KM12, 14.6 µM (inactive). The GI50 with HT-29 is 16.4 µM (inactive); in the assay on MDA-MB-231 it was 13.9 µM (inactive); in the assay with T47D, 22.6 µM (inactive); in the assay on NCI/ADR-RES, 19.2 µM (inactive); with K562 it was 21.8 µM (inactive); in the assay with HOP-62, 20 µM (inactive). The GI50 is 32.3 µM (inactive) with SNB-19; 31.8 µM (inactive) in the assay on HOP-92; 13.9 µM (inactive) with NCI-H522; 36.7 µM (inactive) in the assay with SR; 27.9 µM (inactive) in the assay with SF-539; 15.6 µM (inactive) with HCT-116.

Turning to `Cc1sc(N/N=C2\C(=O)Nc3ccccc32)nc1-c1ccccc1`, the GI50 in the assay on HCT-15 is 9.38 µM; in the assay on MDA-N it was 19.4 µM (inactive); in the assay with NCI-H23, 16.6 µM (inactive); with OVCAR-8 it was 17.5 µM (inactive); with KM12 it was 13.6 µM (inactive); in the assay on HT-29 it was 20.3 µM (inactive). In addition, the GI50 in the assay on MDA-MB-231 is 14.5 µM (inactive); in the assay on T47D, 13.6 µM (inactive); with NCI/ADR-RES, 17 µM (inactive); in the assay on HOP-62, 12 µM (inactive); in the assay on DU-145, 11.6 µM (inactive); in the assay on SNB-19, 16.6 µM (inactive). The GI50 with HOP-92 is 23 µM (inactive); with SF-539, 18.8 µM (inactive); with SK-MEL-28, 17.3 µM (inactive); in the assay with HCT-116 it was 12.4 µM (inactive).

On to `O=C(CC(Cl)(Cl)C(Cl)(Cl)Cl)c1ccccc1`, for which the GI50 in the assay with HCT-15 was 2.17 µM; in the assay with PC-3, 14.4 µM (inactive); with NCI-H23, 3.88 µM (inactive); in the assay with OVCAR-8 it was 2.59 µM (inactive); with KM12, 4.18 µM (inactive); in the assay with HT-29 it was 2.06 µM (inactive). The GI50 with MDA-MB-231 is 2.11 µM (inactive); in the assay on T47D, 2.73 µM (inactive); in the assay with NCI/ADR-RES, 5.26 µM (inactive); in the assay on K562 it was 2.09 µM (inactive); with HOP-62 it was 4.21 µM (inactive); in the assay on DU-145, 3.01 µM (inactive). Moreover, the GI50 in the assay with SNB-19 was 17.4 µM (inactive); with HOP-92, 19.9 µM (inactive); in the assay on NCI-H522, 2.65 µM (inactive); in the assay with SR, 2.04 µM (inactive); in the assay on SF-539, 16.2 µM (inactive); in the assay with SK-MEL-28, 2.2 µM (inactive). In addition, the GI50 in the assay on HCT-116 is 2.1 µM (inactive).

Regarding `Cc1cc(S(=O)(=O)Nc2nc(N)nc(N(C)C)n2)c(S)cc1Cl`, the GI50 is > 10 µM with HCT-15; > 10 µM (inactive) with MDA-N; > 10 µM (inactive) in the assay with PC-3; > 10 µM (inactive) in the assay on NCI-H23; > 10 µM (inactive) in the assay on OVCAR-8; > 10 µM (inactive) in the assay on KM12. In addition, the GI50 with HT-29, with T47D, in the assay with NCI/ADR-RES, in the assay on K562, in the assay on HOP-62 and in the assay with DU-145 was > 10 µM (inactive) throughout. Besides, the GI50 in the assay with SNB-19, in the assay with HOP-92, in the assay with NCI-H522, in the assay with SR, in the assay on SF-539 and with SK-MEL-28 was > 10 µM (inactive) throughout. Also, the GI50 in the assay with HCT-116 is > 10 µM (inactive).

For the molecule `COc1ccc(/C(=N/OCCCC(=O)O)c2cccs2)cc1`, the GI50 in the assay on HCT-15 was > 100 µM; in the assay with MDA-N, > 100 µM (inactive); in the assay on PC-3, > 100 µM (inactive); in the assay with NCI-H23, > 100 µM (inactive); in the assay on OVCAR-8, > 100 µM (inactive); in the assay with KM12, > 100 µM (inactive). Besides, the GI50 in the assay on HT-29, with MDA-MB-231, in the assay with T47D, in the assay with NCI/ADR-RES, in the assay with K562 and in the assay on HOP-62 was > 100 µM (inactive) each time. In addition, the GI50 with DU-145, in the assay with SNB-19, in the assay with HOP-92, with SF-539 and in the assay on HCT-116 was > 100 µM (inactive) throughout.

As to `O=S1(=O)c2ccccc2N(c2ccccc2)c2nnnn21`, the GI50 with HCT-15 was 12.6 µM; in the assay on PC-3 it was 44.3 µM (inactive); in the assay on NCI-H23 it was 28.5 µM (inactive); with OVCAR-8, 30.1 µM (inactive); in the assay on KM12, 29.4 µM (inactive); in the assay with HT-29, 20.6 µM (inactive). The GI50 is 25.6 µM (inactive) in the assay on MDA-MB-231; 31.8 µM (inactive) with T47D; 31.4 µM (inactive) with NCI/ADR-RES; 29.4 µM (inactive) with K562; 21 µM (inactive) with HOP-62; 34.5 µM (inactive) with DU-145. The GI50 with SNB-19 was 23.3 µM (inactive); in the assay with HOP-92, 35 µM (inactive); in the assay with NCI-H522, 17.6 µM (inactive); in the assay with SF-539 it was 18.7 µM (inactive); in the assay on SK-MEL-28, 22.4 µM (inactive); in the assay on HCT-116, 26.4 µM (inactive).

Take `CC(NC(=O)c1c(O)[nH]c(=S)[nH]c1=O)c1ccc([N+](=O)[O-])cc1` (stereo not drawn): the GI50 in the assay with HCT-15 was > 100 µM; in the assay on MDA-N, > 100 µM (inactive); in the assay with PC-3, 40.7 µM (inactive); in the assay on NCI-H23, 88.1 µM (inactive); in the assay on KM12, 47.6 µM (inactive); with HT-29 it was > 100 µM (inactive). In addition, the GI50 is 60.7 µM (inactive) with MDA-MB-231; 37.2 µM (inactive) in the assay with T47D; 43.7 µM (inactive) in the assay on K562; 58.3 µM (inactive) in the assay on HOP-62; 75.7 µM (inactive) in the assay on DU-145; 57.5 µM (inactive) in the assay on SNB-19. Also, the GI50 is 39.7 µM (inactive) in the assay on HOP-92, 82.2 µM (inactive) in the assay on SF-539, > 100 µM (inactive) in the assay on SK-MEL-28 and 61 µM (inactive) in the assay with HCT-116.
